Source: patent US20210032257A1, “(E)-1-(4-(DIMETHYLAMINO)BUT-2-ENOYL)PYRROLIDIN-3-YL 4-((3-ISOPROPYL-5-METHYLPYRAZOLO[1,5-A]PYRIMIDIN-7-YL)AMINO)PIPERIDINE-1-CARBOXYLATE FOR INHIBITING CDK7” (Eli Lilly and Company, priority 2017, published 2021)

How the values were obtained:
[1] = tested on: phospho-carboxyl terminal domain (Ser2) in HCT116 cells; assay: p-CTD (S2) cell based Acumen assay; conditions: Homo sapiens, HCT-116, 4 hours, read-out: relative IC50 for phosphoCTD (S2)
Description: (§1) HCT116 cells (ATCC CCL-247) are cultured in McCoy's 5A Medium Modified media supplemented with 10% FBS, 1% NaPyr and 1% Pen/Strep and plated (prior to becoming 70% confluent) in 96-well flat-bottom plates at a density of 5,000 cells per well in 100 μL volume. The cells are then incubated overnight in a cell culture incubator (5% CO2, 95% Relative Humidity (RH) and 37° C.) and allowed to attach to the plate. The following morning the cells are dosed with compounds. Compound inhibitors are first solubilized at 60 μM in culture medium containing 0.6% DMSO. Subsequently compound serial dilutions (1:3) are prepared over a 6 μM to 0.00 μM range. […]
The following day cells are washed three times with PBS (100 μL/well) and incubated with 50 μL/well of secondary antibody (1:2000 dilution, Goat anti-rabbit IgM ALEXA FLUOR™ 488) in PBS for 1 hour at RT. […] Plates are analyzed on Acumen on FL2 (mean intensity), and FL3 (total intensity). Fluorescence plates are scanned with ACUMEN EXPLORER™ [Laser-scanning fluorescence microplate cytometer manufactured by TTP LABTECH LTD] to measure anti-phospho-carboxyl terminal domain at Serine 2 (pCTD). […]
The IC50 is determined by curve fitting to a four parameter logistic for each output using GENE DATA™.

[2] = tested on: phospho-carboxyl terminal domain (Ser5) in HCT116 cells; assay: p-CTD (S5) cell based Acumen assay; conditions: Homo sapiens, HCT-116, 4 hours, read-out: Relative IC50 for pCTD Ser5
Description: as §1, with “are” for “are then”, “following morning,” for “following morning”, “are” for “are first”, “a 60” for “a 6”, “to 0.003” for “to 0.00”
The following day cells are washed three times with PBS (100 μL/well) and incubated with 50 μL/well of secondary antibody (1:2000 dilution, Goat anti-rabbit IgM ALEXA FLUOR™ 488) in PBS for 1 hour at room temperature. […] Plates are analyzed on Acumen on FL2 (mean intensity), and FL3 (total intensity). Fluorescence plates are scanned with ACUMEN EXPLORER™ [Laser-scanning fluorescence microplate cytometer manufactured by TTP LABTECH LTD] to measure anti-phospho-carboxyl terminal domain at Serine 5 (pCTD). […] The IC50 is determined by curve fitting to a four parameter logistic for each output using GENE DATA™.

cMyc in HCT116 cells = assay: cMyc cell based Acumen assay; conditions: Homo sapiens, HCT-116, 4 hours, read-out: Relative IC50 for cMyc
CDK7/CyclinH/Mat1 = CDK7/CyclinH/Mat1 (Homo sapiens, UniProt P50613); assay: Biochemical assay for inhibition of CDK7/CyclinH/MAT1 (radiolabel filter binding)
CDK9/cyclinT1 = CDK9/cyclinT1 (Homo sapiens, UniProt P50750); assay: Assay for inhibition of CDK9/CyclinT1 kinase activity (radiolabel filter binding)
CDK9/cyclinT1, sequence (P50750 whole entry): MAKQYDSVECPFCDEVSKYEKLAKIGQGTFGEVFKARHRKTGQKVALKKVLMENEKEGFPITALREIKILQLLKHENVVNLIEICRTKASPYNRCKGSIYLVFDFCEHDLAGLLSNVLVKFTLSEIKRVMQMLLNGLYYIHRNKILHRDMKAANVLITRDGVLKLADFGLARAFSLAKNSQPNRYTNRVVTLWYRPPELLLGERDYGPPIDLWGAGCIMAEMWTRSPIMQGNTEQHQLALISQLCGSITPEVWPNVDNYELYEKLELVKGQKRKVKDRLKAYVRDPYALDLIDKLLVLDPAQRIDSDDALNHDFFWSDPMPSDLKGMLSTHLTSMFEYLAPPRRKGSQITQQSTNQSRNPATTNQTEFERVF
CDK9/cyclinT1, sequence (O60563 whole entry partner): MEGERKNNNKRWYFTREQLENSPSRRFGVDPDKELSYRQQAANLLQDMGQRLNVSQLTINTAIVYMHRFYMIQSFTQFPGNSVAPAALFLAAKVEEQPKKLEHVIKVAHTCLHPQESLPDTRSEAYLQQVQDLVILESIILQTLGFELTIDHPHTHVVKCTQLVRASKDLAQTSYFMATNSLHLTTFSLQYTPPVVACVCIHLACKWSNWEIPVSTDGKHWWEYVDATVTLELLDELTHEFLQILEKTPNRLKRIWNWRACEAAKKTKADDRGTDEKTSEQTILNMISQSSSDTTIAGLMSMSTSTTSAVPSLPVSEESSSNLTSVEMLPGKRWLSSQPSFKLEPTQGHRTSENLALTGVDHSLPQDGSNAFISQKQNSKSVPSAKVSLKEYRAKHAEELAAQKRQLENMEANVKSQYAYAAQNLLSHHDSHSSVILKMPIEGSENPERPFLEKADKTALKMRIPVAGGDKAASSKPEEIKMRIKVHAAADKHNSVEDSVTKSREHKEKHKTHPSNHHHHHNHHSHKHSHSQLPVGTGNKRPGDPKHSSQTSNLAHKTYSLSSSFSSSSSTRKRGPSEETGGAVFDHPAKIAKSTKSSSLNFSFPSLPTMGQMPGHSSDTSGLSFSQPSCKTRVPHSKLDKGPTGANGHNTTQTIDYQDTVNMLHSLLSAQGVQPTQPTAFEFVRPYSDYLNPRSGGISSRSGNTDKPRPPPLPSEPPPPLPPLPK

CDK7/CyclinH/Mat1, sequence (P50613 whole entry): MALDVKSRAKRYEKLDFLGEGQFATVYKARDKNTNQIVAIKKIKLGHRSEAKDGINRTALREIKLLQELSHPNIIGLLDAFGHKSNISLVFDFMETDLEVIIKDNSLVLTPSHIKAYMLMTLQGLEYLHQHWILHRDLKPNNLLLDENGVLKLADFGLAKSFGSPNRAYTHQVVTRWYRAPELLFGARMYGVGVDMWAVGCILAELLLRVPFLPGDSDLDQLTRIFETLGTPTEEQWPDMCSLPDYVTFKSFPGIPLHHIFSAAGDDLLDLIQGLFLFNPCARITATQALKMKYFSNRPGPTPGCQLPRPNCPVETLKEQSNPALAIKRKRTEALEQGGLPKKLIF
CDK7/CyclinH/Mat1, sequence (P51946 whole entry partner): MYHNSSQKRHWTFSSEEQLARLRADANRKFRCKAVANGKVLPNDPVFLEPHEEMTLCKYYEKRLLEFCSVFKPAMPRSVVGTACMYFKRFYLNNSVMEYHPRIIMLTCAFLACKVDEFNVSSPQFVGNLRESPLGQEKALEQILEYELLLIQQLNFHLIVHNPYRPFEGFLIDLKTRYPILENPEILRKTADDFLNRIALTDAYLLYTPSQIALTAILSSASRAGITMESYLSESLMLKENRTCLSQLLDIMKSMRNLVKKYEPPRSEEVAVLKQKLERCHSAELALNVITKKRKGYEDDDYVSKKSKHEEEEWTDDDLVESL
CDK7/CyclinH/Mat1, sequence (P51948 whole entry partner): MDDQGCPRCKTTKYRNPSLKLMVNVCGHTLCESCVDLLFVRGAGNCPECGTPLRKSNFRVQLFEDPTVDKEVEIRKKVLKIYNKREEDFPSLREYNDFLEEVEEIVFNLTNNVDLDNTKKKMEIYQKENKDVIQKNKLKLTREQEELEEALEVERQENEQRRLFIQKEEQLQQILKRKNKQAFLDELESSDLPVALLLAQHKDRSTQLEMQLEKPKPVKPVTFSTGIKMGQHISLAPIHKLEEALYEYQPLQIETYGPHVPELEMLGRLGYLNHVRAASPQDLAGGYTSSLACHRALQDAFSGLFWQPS

IC50 [1]: 3.52 µM
IC50 [2]: 198 nM
IC50 (cMyc in HCT116 cells): 57.3 nM
IC50 (CDK7/CyclinH/Mat1; IC50 in CDK7, 3 hours of preincubation of CDK7 enzyme): 5.06 nM
IC50 (CDK7/CyclinH/Mat1; IC50 in CDK7, without preincubation): 48.7 nM
IC50 (CDK9/cyclinT1): 2450 nM
SMILES: Cc1cc(NC2CCN(C(=O)O[C@@H]3CCN(C(=O)/C=C/CN(C)C)C3)CC2)n2ncc(C(C)C)c2n1 [Example 3, [(3R)-1-[(E)-4-(dimethylamino)but-2-enoyl]pyrrolidin-3-yl] 4-[(3-isopropyl-5-methyl-pyrazolo[1,5-a]pyrimidin-7-yl)amino]piperidine-1-carboxylate]
